# What was measured:
# [1] = target: Tyrosine-protein kinase CSK (Homo sapiens) (UniProt P41240); experiment: Binding affinity to wild-type human full length CSK (M1 to L450 residues) expressed in bacterial expression system assessed as residual binding level at 10 uM by Kinomescan method relative to control
# [2] = target: TGF-beta receptor type-2 (Homo sapiens) (UniProt P37173); experiment: Binding affinity to wild-type human partial length TGFBR2 (I218 to K567 residues) expressed in bacterial expression system assessed as residual binding level at 10 uM by Kinomescan method relative to control
# [3] = target: Serine/threonine-protein kinase 25 (Homo sapiens) (UniProt O00506); experiment: Binding affinity to wild-type human partial length YSK1 (V14 to H295 residues) expressed in bacterial expression system assessed as residual binding level at 10 uM by Kinomescan method relative to control
# [4] = target: Activin receptor type-1B (Homo sapiens) (UniProt P36896); experiment: Binding affinity to wild-type human ACVR1B (S187 to I505 residues) expressed in bacterial expression system assessed as residual binding level at 10 uM by Kinomescan method relative to control
# Activin receptor type-1B (Homo sapiens), sequence (P36896 whole entry, the tested form may be a part): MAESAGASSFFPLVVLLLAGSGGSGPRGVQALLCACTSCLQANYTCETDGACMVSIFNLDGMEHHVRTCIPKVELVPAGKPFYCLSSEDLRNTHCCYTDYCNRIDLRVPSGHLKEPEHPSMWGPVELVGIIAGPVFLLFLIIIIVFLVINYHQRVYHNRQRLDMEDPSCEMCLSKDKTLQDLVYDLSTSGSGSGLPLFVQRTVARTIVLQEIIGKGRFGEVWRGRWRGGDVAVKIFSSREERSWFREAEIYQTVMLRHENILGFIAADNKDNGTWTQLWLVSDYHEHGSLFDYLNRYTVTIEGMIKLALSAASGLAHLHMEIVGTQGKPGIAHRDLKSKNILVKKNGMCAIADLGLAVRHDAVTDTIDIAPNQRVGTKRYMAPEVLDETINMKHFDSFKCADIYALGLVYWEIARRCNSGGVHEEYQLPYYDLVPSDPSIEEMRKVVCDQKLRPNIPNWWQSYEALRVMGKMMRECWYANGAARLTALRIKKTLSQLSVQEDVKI
# [5] = target: Serine/threonine-protein kinase LATS1 (Homo sapiens) (UniProt O95835); experiment: Binding affinity to wild-type human partial length LATS1 (Q678 to V1130 residues) expressed in bacterial expression system assessed as residual binding level at 10 uM by Kinomescan method relative to control
# [6] = target: Serine/threonine-protein kinase PLK4 (Homo sapiens) (UniProt O00444); experiment: Binding affinity to wild-type human partial length PLK4 (M1 to S273 residues) expressed in mammalian expression system assessed as residual binding level at 10 uM by Kinomescan method relative to control
# [7] = target: Rhodopsin kinase GRK7 (Homo sapiens) (UniProt Q8WTQ7); experiment: Binding affinity to wild-type human full length GRK7 (M1 to L553 residues) expressed in mammalian expression system assessed as residual binding level at 10 uM by Kinomescan method relative to control
# Rhodopsin kinase GRK7 (Homo sapiens), sequence (Q8WTQ7 whole entry, the tested form may be a part): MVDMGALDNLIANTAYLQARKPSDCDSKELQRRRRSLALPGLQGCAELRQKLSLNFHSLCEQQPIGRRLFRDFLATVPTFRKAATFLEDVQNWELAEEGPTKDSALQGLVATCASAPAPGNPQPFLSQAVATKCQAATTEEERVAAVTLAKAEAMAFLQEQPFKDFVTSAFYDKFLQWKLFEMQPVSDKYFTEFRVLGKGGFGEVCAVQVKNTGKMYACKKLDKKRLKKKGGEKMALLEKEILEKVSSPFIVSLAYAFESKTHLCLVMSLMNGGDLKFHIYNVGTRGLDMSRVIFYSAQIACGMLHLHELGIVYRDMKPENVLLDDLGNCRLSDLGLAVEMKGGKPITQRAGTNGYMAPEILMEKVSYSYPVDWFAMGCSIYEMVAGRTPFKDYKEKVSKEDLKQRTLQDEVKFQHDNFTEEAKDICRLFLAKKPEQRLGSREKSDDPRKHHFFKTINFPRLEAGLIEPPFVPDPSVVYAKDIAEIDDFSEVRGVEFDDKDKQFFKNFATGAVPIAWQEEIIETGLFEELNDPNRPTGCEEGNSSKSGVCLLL
# [8] = target: Interleukin-1 receptor-associated kinase 1 (Homo sapiens) (UniProt P51617); experiment: Binding affinity to wild-type human partial length IRAK1 (R194 to S712 residues) expressed in mammalian expression system assessed as residual binding level at 10 uM by Kinomescan method relative to control
# [9] = target: Casein kinase I isoform gamma-3 (Homo sapiens) (UniProt Q9Y6M4); experiment: Binding affinity to wild-type human full length CSNK1G3 (M1 to K447 residues) expressed in bacterial expression system assessed as residual binding level at 10 uM by Kinomescan method relative to control
# Casein kinase I isoform gamma-3 (Homo sapiens), sequence (Q9Y6M4 whole entry, looked up, the tested form may be a part, canonical isoform): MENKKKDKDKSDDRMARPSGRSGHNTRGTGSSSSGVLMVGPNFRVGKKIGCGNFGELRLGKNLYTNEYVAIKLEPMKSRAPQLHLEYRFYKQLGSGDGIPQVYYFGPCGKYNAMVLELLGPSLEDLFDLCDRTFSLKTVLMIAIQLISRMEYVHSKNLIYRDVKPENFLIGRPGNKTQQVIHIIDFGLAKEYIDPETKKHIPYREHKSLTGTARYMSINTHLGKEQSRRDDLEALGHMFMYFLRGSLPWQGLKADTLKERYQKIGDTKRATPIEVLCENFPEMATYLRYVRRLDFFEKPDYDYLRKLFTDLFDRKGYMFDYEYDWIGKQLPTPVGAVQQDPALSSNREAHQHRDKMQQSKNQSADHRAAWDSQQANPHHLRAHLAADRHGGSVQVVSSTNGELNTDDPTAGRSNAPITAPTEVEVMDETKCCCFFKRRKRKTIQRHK
# [10] = target: RAC-beta serine/threonine-protein kinase (Homo sapiens) (UniProt P31751); experiment: Binding affinity to wild-type human partial length AKT2 expressed in bacterial expression system assessed as residual binding level at 10 uM by Kinomescan method relative to control
# [11] = target: G protein-coupled receptor kinase 4 (Homo sapiens) (UniProt P32298); experiment: Binding affinity to wild-type human full length GRK4 (M1 to C578 residues) expressed in bacterial expression system assessed as residual binding level at 10 uM by Kinomescan method relative to control
# [12] = target: Mitogen-activated protein kinase 9 (Homo sapiens) (UniProt P45984); experiment: Binding affinity to wild-type human full length JNK2 (M1 to Q382 residues) expressed in mammalian expression system assessed as residual binding level at 10 uM by Kinomescan method relative to control
# [13] = target: Serine/threonine-protein kinase Nek1 (Homo sapiens) (UniProt Q96PY6); experiment: Binding affinity to wild-type human partial length NEK1 (M1 to K278 residues) expressed in bacterial expression system assessed as residual binding level at 10 uM by Kinomescan method relative to control
# Serine/threonine-protein kinase Nek1 (Homo sapiens), sequence (Q96PY6 whole entry, the tested form may be a part): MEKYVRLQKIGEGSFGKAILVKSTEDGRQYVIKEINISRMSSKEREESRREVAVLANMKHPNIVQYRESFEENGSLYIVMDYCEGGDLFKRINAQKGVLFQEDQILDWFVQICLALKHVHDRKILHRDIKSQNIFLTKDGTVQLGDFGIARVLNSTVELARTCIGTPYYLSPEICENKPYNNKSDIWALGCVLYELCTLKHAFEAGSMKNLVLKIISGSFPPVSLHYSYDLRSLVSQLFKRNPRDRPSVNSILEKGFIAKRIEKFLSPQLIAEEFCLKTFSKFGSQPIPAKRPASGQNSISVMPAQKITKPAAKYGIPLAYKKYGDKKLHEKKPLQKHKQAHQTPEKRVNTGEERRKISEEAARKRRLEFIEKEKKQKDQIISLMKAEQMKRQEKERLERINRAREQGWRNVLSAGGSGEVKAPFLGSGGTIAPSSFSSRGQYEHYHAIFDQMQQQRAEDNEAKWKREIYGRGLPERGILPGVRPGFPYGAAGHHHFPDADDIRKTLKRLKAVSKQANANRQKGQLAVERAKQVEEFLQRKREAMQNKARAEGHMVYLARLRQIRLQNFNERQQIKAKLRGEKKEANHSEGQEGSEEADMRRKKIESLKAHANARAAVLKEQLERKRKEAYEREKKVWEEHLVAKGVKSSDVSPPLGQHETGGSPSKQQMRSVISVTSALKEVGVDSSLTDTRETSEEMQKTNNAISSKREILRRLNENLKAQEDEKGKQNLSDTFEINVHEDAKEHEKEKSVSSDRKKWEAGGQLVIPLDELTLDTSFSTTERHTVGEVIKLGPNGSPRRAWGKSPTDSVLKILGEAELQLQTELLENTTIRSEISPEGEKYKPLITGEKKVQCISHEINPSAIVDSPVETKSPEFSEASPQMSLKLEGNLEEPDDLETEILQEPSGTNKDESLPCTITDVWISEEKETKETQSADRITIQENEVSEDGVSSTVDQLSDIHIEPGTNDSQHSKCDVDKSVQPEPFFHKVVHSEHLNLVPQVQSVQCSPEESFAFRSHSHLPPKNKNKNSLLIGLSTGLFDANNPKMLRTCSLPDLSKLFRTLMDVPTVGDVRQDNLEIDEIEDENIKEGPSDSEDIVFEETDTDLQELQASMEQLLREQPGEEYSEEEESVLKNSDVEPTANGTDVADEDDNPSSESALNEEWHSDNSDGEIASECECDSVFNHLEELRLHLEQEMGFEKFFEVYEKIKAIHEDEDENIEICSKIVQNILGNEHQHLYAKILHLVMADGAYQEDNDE
# [14] = target: Tyrosine-protein kinase JAK2 (Homo sapiens) (UniProt O60674); experiment: Binding affinity to wild-type human partial length JAK2 JH1 catalytic domain (A829 to G1132 residues) expressed in mammalian expression system assessed as residual binding level at 10 uM by Kinomescan method relative to control
# [15] = target: Ephrin type-A receptor 1 (Homo sapiens) (UniProt P21709); experiment: Binding affinity to wild-type human partial length EPHA1 (V588 to I913 residues) expressed in bacterial expression system assessed as residual binding level at 10 uM by Kinomescan method relative to control
# Ephrin type-A receptor 1 (Homo sapiens), sequence (P21709 whole entry, the tested form may be a part): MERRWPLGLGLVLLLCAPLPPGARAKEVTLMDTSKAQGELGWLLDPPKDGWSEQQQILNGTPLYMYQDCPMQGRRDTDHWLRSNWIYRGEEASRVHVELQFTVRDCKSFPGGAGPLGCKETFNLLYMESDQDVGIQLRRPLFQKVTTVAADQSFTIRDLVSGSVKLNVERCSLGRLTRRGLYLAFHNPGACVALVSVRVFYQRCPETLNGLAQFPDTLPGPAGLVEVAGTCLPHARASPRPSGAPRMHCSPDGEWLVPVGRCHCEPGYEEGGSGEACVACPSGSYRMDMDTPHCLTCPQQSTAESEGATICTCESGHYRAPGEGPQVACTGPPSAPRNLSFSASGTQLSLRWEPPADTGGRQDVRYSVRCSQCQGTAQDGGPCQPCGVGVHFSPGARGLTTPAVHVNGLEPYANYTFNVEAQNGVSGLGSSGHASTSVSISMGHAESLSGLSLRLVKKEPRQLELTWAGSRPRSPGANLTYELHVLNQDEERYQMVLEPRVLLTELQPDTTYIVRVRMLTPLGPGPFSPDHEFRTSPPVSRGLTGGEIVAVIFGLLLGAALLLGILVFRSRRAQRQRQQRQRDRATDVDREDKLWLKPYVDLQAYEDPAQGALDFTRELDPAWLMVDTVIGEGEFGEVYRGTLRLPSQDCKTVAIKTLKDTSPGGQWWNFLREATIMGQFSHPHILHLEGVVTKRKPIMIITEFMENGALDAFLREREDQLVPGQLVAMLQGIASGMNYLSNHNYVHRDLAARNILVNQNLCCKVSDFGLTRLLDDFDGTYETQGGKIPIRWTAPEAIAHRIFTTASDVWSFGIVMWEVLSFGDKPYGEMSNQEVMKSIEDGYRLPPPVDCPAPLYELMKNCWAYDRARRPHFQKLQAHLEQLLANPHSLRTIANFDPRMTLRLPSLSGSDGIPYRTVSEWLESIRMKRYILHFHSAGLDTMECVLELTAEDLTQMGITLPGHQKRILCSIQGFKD
# [16] = target: Bone morphogenetic protein receptor type-1A (Homo sapiens) (UniProt P36894); experiment: Binding affinity to wild-type human partial length BMPR1A (Q214 to I532 residues) expressed in bacterial expression system assessed as residual binding level at 10 uM by Kinomescan method relative to control
# [17] = target: Serine/threonine-protein kinase 33 (Homo sapiens) (UniProt Q9BYT3); experiment: Binding affinity to wild-type human full length STK33 (M1 to L514 residues) expressed in bacterial expression system assessed as residual binding level at 10 uM by Kinomescan method relative to control
# [18] = test system: Epidermal growth factor receptor (Homo sapiens), P00533 [UNDEFINED MUTATION]; experiment: Binding affinity to human partial length EGFR E746-A750del mutant expressed in bacterial expression system assessed as residual binding level at 10 uM by Kinomescan method relative to control
# [19] = target: Casein kinase I isoform gamma-1 (Homo sapiens) (UniProt Q9HCP0); experiment: Binding affinity to wild-type human partial length CSNK1G1 (T15 to S353 residues) expressed in bacterial expression system assessed as residual binding level at 10 uM by Kinomescan method relative to control
# [20] = target: Receptor-interacting serine/threonine-protein kinase 2 (Homo sapiens) (UniProt O43353); experiment: Binding affinity to wild-type human partial length RIPK2 (M1 to K310 residues) expressed in bacterial expression system assessed as residual binding level at 10 uM by Kinomescan method relative to control
# [21] = target: Cyclin-dependent kinase 19 (Homo sapiens) (UniProt Q9BWU1); experiment: Binding affinity to wild-type human partial length CDK11 (M1 to N360 residues) expressed in bacterial expression system assessed as residual binding level at 10 uM by Kinomescan method relative to control
# [22] = target: Phosphatidylinositol 4-phosphate 5-kinase type-1 alpha (Homo sapiens) (UniProt Q99755); experiment: Binding affinity to wild-type human full length PIP5K1A (M1 to H562 residues) expressed in bacterial expression system assessed as residual binding level at 10 uM by Kinomescan method relative to control
# Phosphatidylinositol 4-phosphate 5-kinase type-1 alpha (Homo sapiens), sequence (Q99755 whole entry, the tested form may be a part): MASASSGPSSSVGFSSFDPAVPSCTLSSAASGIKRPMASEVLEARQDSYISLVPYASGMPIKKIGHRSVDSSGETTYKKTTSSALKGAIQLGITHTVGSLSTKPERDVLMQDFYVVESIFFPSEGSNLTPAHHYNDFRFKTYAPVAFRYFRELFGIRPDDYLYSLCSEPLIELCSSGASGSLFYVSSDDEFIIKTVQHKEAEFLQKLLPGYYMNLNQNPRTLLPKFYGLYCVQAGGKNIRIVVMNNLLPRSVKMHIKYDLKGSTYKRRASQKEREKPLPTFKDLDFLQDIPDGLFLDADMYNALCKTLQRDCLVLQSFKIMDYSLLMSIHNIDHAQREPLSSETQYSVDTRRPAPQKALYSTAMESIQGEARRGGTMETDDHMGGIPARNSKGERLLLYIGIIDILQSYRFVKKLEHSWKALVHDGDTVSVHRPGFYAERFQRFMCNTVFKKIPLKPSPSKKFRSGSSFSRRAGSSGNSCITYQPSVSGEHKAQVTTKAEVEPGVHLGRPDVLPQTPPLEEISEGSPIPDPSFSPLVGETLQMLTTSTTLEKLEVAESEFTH
# [23] = target: Tyrosine-protein kinase Srms (Homo sapiens) (UniProt Q9H3Y6); experiment: Binding affinity to wild-type human partial length SRMS (L208 to P488 residues) expressed in mammalian expression system assessed as residual binding level at 10 uM by Kinomescan method relative to control
# [24] = target: Serine/threonine-protein kinase 36 (Homo sapiens) (UniProt Q9NRP7); experiment: Binding affinity to wild-type human partial length STK36 (M1 to T271 residues) expressed in bacterial expression system assessed as residual binding level at 10 uM by Kinomescan method relative to control
# HL-60 = experiment: Cytoprotection against human HL60 cells assessed as inhibition of H2O2-induced cell death pretreated for 1 hr followed by H2O2 stimulation measured after 3 hrs by p-iodonitrotetrazolium violet dye based LDH assay; assay type: functional
# Tyrosine-protein kinase CSK (Homo sapiens), sequence (P41240 2-450 limits assumed): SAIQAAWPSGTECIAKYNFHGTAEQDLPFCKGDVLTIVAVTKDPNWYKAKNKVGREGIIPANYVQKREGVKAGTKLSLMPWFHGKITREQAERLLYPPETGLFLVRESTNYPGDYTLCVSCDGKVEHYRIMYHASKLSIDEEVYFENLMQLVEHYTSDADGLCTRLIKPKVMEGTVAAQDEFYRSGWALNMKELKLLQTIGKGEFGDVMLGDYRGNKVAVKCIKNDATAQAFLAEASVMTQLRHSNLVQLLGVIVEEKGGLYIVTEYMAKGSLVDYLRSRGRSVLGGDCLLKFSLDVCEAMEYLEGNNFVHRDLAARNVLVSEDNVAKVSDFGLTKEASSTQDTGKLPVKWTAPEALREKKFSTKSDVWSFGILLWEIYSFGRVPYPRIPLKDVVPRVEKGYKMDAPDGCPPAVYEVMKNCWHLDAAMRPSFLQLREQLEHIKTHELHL
structure (smiles),measurement,setting,value
CC(C)N1C(=O)C(NCCCN(C)C)=C(c2cn(C)c3ccccc23)C1=O.Cl,Activity,[1],96%
same,Activity,[2],92%
same,Activity,[3],94%
same,Activity,[4],88%
same,Activity,[5],96%
same,Activity,[6],97%
same,Activity,[7],97%
same,Activity,[8],66%
same,Activity,[9],96%
same,Activity,[10],100%
same,Activity,[11],88%
same,Activity,[12],80%
same,Activity,[13],100%
same,Activity,[14],86%
same,Activity,[15],85%
same,Activity,[16],100%
same,Activity,[17],100%
same,Activity,[18],100%
same,Activity,[19],89%
same,Activity,[20],100%
same,Activity,[21],94%
same,Activity,[22],96%
same,Activity,[23],82%
same,Activity,[24],98%
same,IC50,HL-60,450 nM

# From ChEMBL document CHEMBL4304811, “Development of a Water-Soluble Indolylmaleimide Derivative IM-93 Showing Dual Inhibition of Ferroptosis and NETosis” (ACS Med Chem Lett, 2019)
